Data reported in PubChem BioAssay (NCI).
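Grown in 96-well plates, cells were treated for 48 hours with each compound at five concentrations. Insufficient inhibition: endpoint recorded as highest concentration tested. At the GI50, growth is halved. At the TGI there is no net growth.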

What was measured:
Experiment in all cases: NCI anticancer screen, dose series, 48 h
[1] = tested on: 786-0 renal
[2] = tested on: A498 renal
[3] = tested on: A549 NSCLC
[4] = tested on: ACHN renal
[5] = tested on: BT-549 breast
[6] = tested on: CAKI-1 renal
[7] = tested on: CCRF-CEM leukemia
[8] = tested on: COLO 205 colon
[9] = tested on: DU-145 prostate
[10] = tested on: EKVX NSCLC
[11] = tested on: HCC-2998 colon
[12] = tested on: HCT-116 colon
[13] = tested on: HCT-15 colon
[14] = tested on: HL-60(TB) leukemia
[15] = tested on: HOP-62 NSCLC
[16] = tested on: HS 578T breast
[17] = tested on: HT29 colon
[18] = tested on: IGROV1 ovarian
[19] = tested on: K-562 leukemia
[20] = tested on: KM12 colon
[21] = tested on: LOX IMVI melanoma
[22] = tested on: M14 melanoma
[23] = tested on: MALME-3M melanoma
[24] = tested on: MCF7 breast
[25] = tested on: MDA-MB-231 breast
[26] = tested on: MDA-MB-435
[27] = tested on: MOLT-4 leukemia
[28] = tested on: NCI-H226 lung
[29] = tested on: NCI-H23 lung
[30] = tested on: NCI-H460 lung
[31] = tested on: NCI-H522 lung
[32] = tested on: NCI/ADR-RES ovarian
[33] = tested on: OVCAR-4 ovarian
[34] = tested on: OVCAR-5 ovarian
[35] = tested on: OVCAR-8 ovarian
[36] = tested on: PC-3 prostate
[37] = tested on: RPMI-8226 leukemia
[38] = tested on: RXF 393 renal
[39] = tested on: SF-268 CNS
[40] = tested on: SF-295 CNS
[41] = tested on: SF-539 CNS
[42] = tested on: SK-MEL-2 melanoma
[43] = tested on: SK-MEL-28 melanoma
[44] = tested on: SK-MEL-5 melanoma
[45] = tested on: SK-OV-3 ovarian
[46] = tested on: SN12C renal
[47] = tested on: SNB-19 CNS
[48] = tested on: SNB-75 CNS
[49] = tested on: SR leukemia
[50] = tested on: SW-620 colon
[51] = tested on: T-47D breast
[52] = tested on: TK-10 renal
[53] = tested on: U251 CNS
[54] = tested on: UACC-257 melanoma
[55] = tested on: UACC-62 melanoma
[56] = tested on: UO-31 renal

In the case of `O=C(NCc1ncc[nH]1)c1ccc(-c2nc3ccc4[nH]ncc4c3c3c2CCCC3)cc1`, the GI50 [1] is reported as 1.97 µM, the TGI [1] is reported as 12.1 µM and the GI50 [2] is reported as 0.958 µM. For the same molecule, the TGI [2] was 4.38 µM, the GI50 [3] was 8.04 µM and the TGI [3] was over 50 µM. It also gave a GI50 [4] of 1.6 µM, a TGI [4] of over 50 µM and a GI50 [5] of 0.957 µM. It also gave a TGI [5] of 5.48 µM, a GI50 [6] of 1.08 µM and a TGI [6] of 4.8 µM. It also gave a GI50 [7] of 1.29 µM, a TGI [7] of over 50 µM and a GI50 [8] of 1.12 µM. The TGI [8] was 3.44 µM, the GI50 [9] was 2.17 µM and the TGI [9] was over 50 µM. The GI50 [10] was 2.86 µM, the TGI [10] was 24.2 µM and the GI50 [11] was 1.94 µM. It also gave a TGI [11] of 8.73 µM, a GI50 [12] of 0.58 µM and a TGI [12] of over 50 µM. The GI50 [13] was 6.28 µM, the TGI [13] was over 50 µM and the GI50 [14] was 1.64 µM. It also gave a TGI [14] of 8.98 µM, a GI50 [15] of 1.5 µM and a TGI [15] of 9.57 µM. The GI50 [16] was 1.25 µM, the TGI [16] was 7.65 µM and the GI50 [17] was 2.66 µM. It also gave a TGI [17] of over 50 µM, a GI50 [18] of 0.818 µM and a TGI [18] of 7.64 µM. The GI50 [19] was 2.02 µM, the TGI [19] was over 50 µM and the GI50 [20] was 1.61 µM. The TGI [20] was 9.87 µM, the GI50 [21] was 1.46 µM and the TGI [21] was 6.73 µM. The GI50 [22] was 1.43 µM, the TGI [22] was 7.44 µM and the GI50 [23] was 1.31 µM. It also gave a TGI [23] of 3.67 µM, a GI50 [24] of 1.17 µM and a TGI [24] of 6.76 µM. It also gave a GI50 [25] of 1.84 µM, a TGI [25] of 10.9 µM and a GI50 [26] of 1.66 µM. For the same molecule, the TGI [26] was 7.05 µM, the GI50 [27] was 1.51 µM and the TGI [27] was 16.8 µM. For the same molecule, the GI50 [28] was 1.4 µM, the TGI [28] was 17.3 µM and the GI50 [29] was 1.82 µM. It also gave a TGI [29] of 8.21 µM, a GI50 [30] of 1.94 µM and a TGI [30] of 7.83 µM. The GI50 [31] was 0.869 µM, the TGI [31] was 2.85 µM and the GI50 [32] was over 50 µM. For the same molecule, the TGI [32] was over 50 µM, the GI50 [33] was 3.19 µM and the TGI [33] was 19.7 µM. It also gave a GI50 [34] of 9.18 µM, a TGI [34] of over 50 µM and a GI50 [35] of 1.81 µM. It also gave a TGI [35] of 17.3 µM, a GI50 [36] of 1.81 µM and a TGI [36] of 32 µM. The GI50 [37] was 6.15 µM, the TGI [37] was 23.4 µM and the GI50 [38] was 0.603 µM. The TGI [38] was 2.76 µM, the GI50 [39] was 1.33 µM and the TGI [39] was 8.88 µM. For the same molecule, the GI50 [40] was 3 µM, the TGI [40] was 14.9 µM and the GI50 [41] was 1.21 µM. For the same molecule, the TGI [41] was 5.85 µM, the GI50 [42] was 1.1 µM and the TGI [42] was 2.87 µM. The GI50 [43] was 1.19 µM, the TGI [43] was 4.6 µM and the GI50 [44] was 1.93 µM. It also gave a TGI [44] of 7.51 µM, a GI50 [45] of 0.707 µM and a TGI [45] of 3.3 µM. It also gave a GI50 [46] of 1.69 µM, a TGI [46] of 10.6 µM and a GI50 [47] of 1.85 µM. It also gave a TGI [47] of 38.1 µM, a GI50 [48] of 1.61 µM and a TGI [48] of 5.2 µM. The GI50 [49] was 0.549 µM, the TGI [49] was 27.7 µM and the GI50 [50] was 1.36 µM. The TGI [50] was over 50 µM, the GI50 [51] was 1.18 µM and the TGI [51] was 6.13 µM. The GI50 [52] was 1.66 µM, the TGI [52] was over 50 µM and the GI50 [53] was 1.68 µM. The TGI [53] was 11.6 µM, the GI50 [54] was 3.61 µM and the TGI [54] was 18.8 µM. The GI50 [55] was 1.38 µM, the TGI [55] was 6.47 µM and the GI50 [56] was 7.57 µM. For the same molecule, the TGI [56] was 22.6 µM.
